In the assay the test system is neurons from primary cortical nerve tissue. Put plainly: Suppression of Rho kinase activation (neurite lengths, keratan sulfate, Y27632). It is filed as cell-based, mice. As for the experimental part:
Next, participation of Rho kinase was investigated in order to investigate the action mechanism of keratanase II in the above Experiment 1. The neurons were seeded onto an 8-well chamber to which a test sample was applied by the same manner as in the method of Experiment 1. Twenty-four hours after starting the incubation of the neurons, 15 μM of Y27632 (Rho kinase inhibitor, Sigma) was added to the neurons followed by incubating for 24 hours more. After that, the chamber was fixed with 4% of paraformaldehyde and the neurons were identified by an immunohistochemical means with Neuronal Class IIIβ tubulin (TUJ1) antibody (COVANCE). The neurite lengths were measured of from 80 to 90 neurons per condition, an average value thereof was calculated and shown by a graph. The test sample was the following four types.
(1) that which was applied with 25 μg/mL of poly-L-lysine (Sigma; hereinafter, the same) followed by being applied with 10 μg/mL of laminin (BD Biosciences; hereinafter, the same).
(2) that which was applied with 25 μg/mL of poly-L-lysine followed by being applied with 10 μg/mL of laminin and 20 μg/mL of keratan sulfate (Seikagaku Corporation; hereinafter, the same).
(3) that which was applied with 25 μg/mL of poly-L-lysine followed by being applied with 10 μg/mL of laminin and 40 μg/mL of keratan sulfate. […]

As to keratan sulfate, the “effect on elongation of the neurite lengths” value (keratan sulfate 20 or 40 μg/mL on poly-L-lysine/laminin) is given as “induces the inhibition”. For `C[C@@H](N)[C@H]1CC[C@H](C(=O)Nc2ccncc2)CC1` [Y27632], the “release of inhibiting action for elongation of neurite lengths induced by keratan sulfate” value (keratan sulfate on poly-L-lysine/laminin, Y27632 15 μM or Ks36 keratanase II 0.01 U/mL without Y27632) is “released”.

For the origin of these results see US8754036B2, “Method for treating neuropathic pain” (National University Corporation Nagoya University, priority 2007, dated 2014).
